Earlier results on two molecules are cited in patent US20050208598A1 (priority 2004, published 2005).

The data set concerns the target avidin (Gallus gallus, UniProt P02701). Particulars: read-out: Kd of binding to avidin.

avidin, sequence (P02701 25-152, species assumed): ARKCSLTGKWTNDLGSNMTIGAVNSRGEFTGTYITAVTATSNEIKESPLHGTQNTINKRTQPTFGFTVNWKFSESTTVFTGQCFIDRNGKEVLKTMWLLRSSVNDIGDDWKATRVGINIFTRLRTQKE

In general, Kd refers to a measure of binding affinity in units of concentration. `O=C(O)c1ccccc1N=Nc1ccc(O)cc1` [HABA, 2-(4-hydroxyphenylazo)benzoic acid]: the Kd is around 6 µM. For `C[C@@H]1NC(=O)N[C@@H]1CCCCCC(=O)O` [desthiobiotin], the Kd was around 0.1 µM.
